Measured values: ChEMBL document CHEMBL1140165, “Rotationally constrained 2,4-diamino-5,6-disubstituted pyrimidines: a new class of histamine H4 receptor antagonists with improved druglikeness and in vivo efficacy in pain and inflammation models” (J Med Chem, 2008)
Values belong to the compound of their own block, whether it stands above or below them. Calls of active or inactive are those of the source. No cut-off for these calls is given here.

Tests used:
Cytochrome P450 3A4 = Cytochrome P450 3A4 (Homo sapiens, UniProt P08684); test: Inhibition of CYP3A4 upto 10 uM; type: ADME
[1] = Protein binding in human; type: ADME, organism-based; conditions: in vivo, read-out: PB (converted)
Histamine H4 receptor [2] = molecular target: T1, Histamine H4 receptor (Homo sapiens, UniProt Q9H3N8); conditions: HEK293
[3] = Metabolic stability in mouse liver microsomes; type: ADME, Microsome
Liver microsomes [4] = test: Metabolic stability in human liver microsomes; type: ADME, Microsome
Histamine H4 receptor [5] = molecular target: T2, Histamine H4 receptor (Rattus norvegicus, UniProt Q91ZY1); test: (§1) Antagonist activity at rat histamine H4 receptor expressed in HEK293 cells assessed as inhibition of histamine-induced intracellular calcium elevation by FLIPR assay; type: functional, cell-based
[6] = molecular target: Histamine H4 receptor (Rattus norvegicus) (UniProt Q91ZY1); test: Antagonist activity at rat histamine H4 receptor expressed in HEK293 cells assessed as inhibition of histamine-induced intracellular calcium elevation by FLIPR assay relative to histamine; type: functional, cell-based
Liver microsomes [7] = test: Metabolic stability in rat liver microsomes; type: ADME, Microsome
Cytochrome P450 2C9 = Cytochrome P450 2C9 (Homo sapiens, UniProt P11712); test: Inhibition of CYP2C9 upto 10 uM; type: ADME
Histamine H4 receptor [8] = molecular target: T2, Histamine H4 receptor; test: Displacement of [3H]histamine from rat histamine H4 receptor expressed in HEK293 cells; type: cell-based
Cytochrome P450 2D6 = Cytochrome P450 2D6 (Homo sapiens, UniProt P10635); test: Inhibition of CYP2D6 upto 10 uM; type: ADME
[9] = Protein binding in rat; type: ADME, organism-based; conditions: in vivo, read-out: PB (converted)
Histamine H4 receptor [10] = molecular target: T1, Histamine H4 receptor; test: Displacement of [3H]histamine from human histamine H4 receptor expressed in HEK293 cells; type: cell-based
[11] = Terminal volume of distribution in rat at 10 mg/kg, iv; type: ADME, organism-based; parameters: dose 10 mg/kg, route intravenous; conditions: in vivo, read-out: Vbeta
[12] = molecular target: Prostaglandin G/H synthase 1 (Homo sapiens) (UniProt P23219); test: Binding affinity at COX1
[13] = molecular target: Delta-type opioid receptor (Homo sapiens) (UniProt P41143); test: Binding affinity to delta opioid receptor
[14] = molecular target: Kappa-type opioid receptor (Homo sapiens) (UniProt P41145); test: Binding affinity to kappa opioid receptor
[15] = Fractional bioavailability in rat at 10 mg/kg, iv and 10 mg/kg, po; type: ADME, organism-based; conditions: in vivo
Histamine H4 receptor [16] = molecular target: T3, Histamine H4 receptor (Mus musculus, UniProt Q91ZY2); test: Antagonist activity at mouse histamine H4 receptor expressed in HEK293 cells assessed as inhibition of histamine-induced intracellular calcium elevation by FLIPR assay; type: functional, cell-based
T3 sequence (Q91ZY2 whole entry): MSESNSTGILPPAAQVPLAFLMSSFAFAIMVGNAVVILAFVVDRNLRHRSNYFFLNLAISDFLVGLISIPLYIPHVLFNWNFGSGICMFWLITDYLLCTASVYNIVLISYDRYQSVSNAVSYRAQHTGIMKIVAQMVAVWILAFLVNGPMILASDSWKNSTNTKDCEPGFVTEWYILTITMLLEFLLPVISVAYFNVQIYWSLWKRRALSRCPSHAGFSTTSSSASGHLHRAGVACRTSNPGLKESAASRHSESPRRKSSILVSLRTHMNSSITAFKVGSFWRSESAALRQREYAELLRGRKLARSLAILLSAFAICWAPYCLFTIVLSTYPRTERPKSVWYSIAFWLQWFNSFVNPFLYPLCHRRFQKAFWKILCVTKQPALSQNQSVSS

[17] = molecular target: Cannabinoid receptor 1 (Homo sapiens) (UniProt P21554); test: Binding affinity to CB1 receptor
[18] = Selectivity ratio of Ki for human histamine H4 receptor to Ki for dopamine D2 receptor
[19] = Selectivity ratio of Ki for human histamine H4 receptor to Ki for 5HT2A receptor
Homo sapiens = species on record: Homo sapiens; test: Selectivity ratio of Ki for human histamine H4 receptor to Ki for human histamine H3 receptor
[20] = molecular target: T4, Prostaglandin G/H synthase 2 (Homo sapiens) (UniProt P35354); test: Binding affinity at COX2
T4 sequence (whole entry): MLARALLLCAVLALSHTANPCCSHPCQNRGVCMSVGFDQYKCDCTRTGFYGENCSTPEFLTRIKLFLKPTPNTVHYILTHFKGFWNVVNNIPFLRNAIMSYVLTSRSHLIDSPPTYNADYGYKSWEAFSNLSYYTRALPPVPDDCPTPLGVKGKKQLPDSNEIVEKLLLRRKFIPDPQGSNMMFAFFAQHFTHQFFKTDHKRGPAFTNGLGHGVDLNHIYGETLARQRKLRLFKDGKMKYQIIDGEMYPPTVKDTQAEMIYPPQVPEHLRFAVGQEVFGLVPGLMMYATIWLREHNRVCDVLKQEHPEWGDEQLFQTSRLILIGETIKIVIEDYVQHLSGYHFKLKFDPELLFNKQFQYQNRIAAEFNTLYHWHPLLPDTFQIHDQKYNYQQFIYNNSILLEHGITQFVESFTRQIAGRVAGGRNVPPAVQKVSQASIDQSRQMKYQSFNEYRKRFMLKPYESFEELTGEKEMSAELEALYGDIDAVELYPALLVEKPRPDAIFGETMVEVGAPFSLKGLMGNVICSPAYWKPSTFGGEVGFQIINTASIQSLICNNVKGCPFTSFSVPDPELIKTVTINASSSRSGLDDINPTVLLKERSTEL

[21] = Selectivity ratio of Ki for human histamine H4 receptor to Ki for 5HT1D receptor
[22] = Blood clearance in rat at 10 mg/kg, iv; type: ADME, organism-based; parameters: dose 10 mg/kg, route intravenous; conditions: whole blood
[23] = Selectivity ratio of Ki for human histamine H4 receptor to Ki for 5HT1A receptor
[24] = molecular target: Cannabinoid receptor 2 (Homo sapiens) (UniProt P34972); test: Binding affinity to CB2 receptor
Mus musculus [25] = test: Antiinflammatory activity against ip dosed BALB/c mouse assessed as inhibition of zymosan-induced peritonitis after 2 hrs pretreated 30 mins before zymosan challenge; type: functional
[26] = molecular target: Mu-type opioid receptor (Homo sapiens) (UniProt P35372); test: Binding affinity to mu opioid receptor
[27] = Selectivity ratio of Ki for human histamine H4 receptor to Ki for histamine H1 receptor
Mus musculus [28] = test: Inhibition of clobenpropit-induced itching in ip dosed CD1/ICR mouse assessed as blockade of scratching in hind paw for 25 mins pretreated 30 mins before clobenpropit challenge; type: functional
[29] = Selectivity ratio of Ki for human histamine H4 receptor to Ki for histamine H2 receptor
[30] = Selectivity ratio of Ki for human histamine H4 receptor to Ki for adrenergic alpha1 receptor
BMMC = test: Blockade of histamine-induced morphological changes in BALB/c mouse BMMC by flow cytometry; type: functional, cell-based
[31] = Half life in rat at 10 mg/kg, iv; type: ADME, organism-based; parameters: dose 10 mg/kg, route intravenous; conditions: in vivo
[32] = molecular target: Histamine H4 receptor (Rattus norvegicus) (UniProt Q91ZY1); test: as §1; type: functional, cell-based

Chain of Cytochrome P450 2C9 (P11712 whole entry): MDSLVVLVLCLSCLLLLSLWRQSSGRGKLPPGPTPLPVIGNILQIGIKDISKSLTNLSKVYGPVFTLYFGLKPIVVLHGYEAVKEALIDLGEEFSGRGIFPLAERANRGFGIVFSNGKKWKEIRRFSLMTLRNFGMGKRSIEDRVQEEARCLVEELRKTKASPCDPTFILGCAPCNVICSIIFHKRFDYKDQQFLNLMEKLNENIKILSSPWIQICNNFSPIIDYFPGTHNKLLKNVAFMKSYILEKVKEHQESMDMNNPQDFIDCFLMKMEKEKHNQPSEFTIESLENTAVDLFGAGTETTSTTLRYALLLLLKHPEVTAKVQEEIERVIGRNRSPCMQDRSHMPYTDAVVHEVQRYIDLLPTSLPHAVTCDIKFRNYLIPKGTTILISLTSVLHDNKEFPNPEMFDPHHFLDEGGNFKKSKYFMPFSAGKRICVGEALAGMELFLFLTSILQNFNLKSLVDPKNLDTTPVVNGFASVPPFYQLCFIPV
Chain of Histamine H4 receptor (Rattus norvegicus) (Q91ZY1 whole entry): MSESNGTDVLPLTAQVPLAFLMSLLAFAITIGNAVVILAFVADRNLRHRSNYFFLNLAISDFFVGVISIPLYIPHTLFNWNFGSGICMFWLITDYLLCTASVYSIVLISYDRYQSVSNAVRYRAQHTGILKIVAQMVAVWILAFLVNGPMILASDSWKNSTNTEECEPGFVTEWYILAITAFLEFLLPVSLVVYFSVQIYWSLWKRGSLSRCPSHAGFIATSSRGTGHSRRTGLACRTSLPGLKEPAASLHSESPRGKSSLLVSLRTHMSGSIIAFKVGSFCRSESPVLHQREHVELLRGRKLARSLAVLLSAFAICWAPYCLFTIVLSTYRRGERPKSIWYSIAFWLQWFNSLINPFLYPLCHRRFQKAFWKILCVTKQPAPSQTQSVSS
T2 sequence (Q91ZY1 whole entry): as above
Chain of Cytochrome P450 2D6 (P10635 whole entry): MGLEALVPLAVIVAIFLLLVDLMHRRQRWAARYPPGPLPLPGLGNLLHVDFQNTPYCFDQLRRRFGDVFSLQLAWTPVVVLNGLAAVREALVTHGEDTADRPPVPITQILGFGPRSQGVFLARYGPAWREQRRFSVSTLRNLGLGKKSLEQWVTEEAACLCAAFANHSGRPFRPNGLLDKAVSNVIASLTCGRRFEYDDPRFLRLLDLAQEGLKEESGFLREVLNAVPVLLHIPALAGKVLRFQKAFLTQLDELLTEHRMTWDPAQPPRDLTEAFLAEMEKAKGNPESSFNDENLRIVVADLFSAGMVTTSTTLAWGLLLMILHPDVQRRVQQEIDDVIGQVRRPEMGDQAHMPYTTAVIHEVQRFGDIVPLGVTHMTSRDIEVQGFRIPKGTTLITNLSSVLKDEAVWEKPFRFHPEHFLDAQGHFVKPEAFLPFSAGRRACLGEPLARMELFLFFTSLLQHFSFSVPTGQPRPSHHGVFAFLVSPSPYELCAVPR
Chain of Cytochrome P450 3A4 (P08684 whole entry): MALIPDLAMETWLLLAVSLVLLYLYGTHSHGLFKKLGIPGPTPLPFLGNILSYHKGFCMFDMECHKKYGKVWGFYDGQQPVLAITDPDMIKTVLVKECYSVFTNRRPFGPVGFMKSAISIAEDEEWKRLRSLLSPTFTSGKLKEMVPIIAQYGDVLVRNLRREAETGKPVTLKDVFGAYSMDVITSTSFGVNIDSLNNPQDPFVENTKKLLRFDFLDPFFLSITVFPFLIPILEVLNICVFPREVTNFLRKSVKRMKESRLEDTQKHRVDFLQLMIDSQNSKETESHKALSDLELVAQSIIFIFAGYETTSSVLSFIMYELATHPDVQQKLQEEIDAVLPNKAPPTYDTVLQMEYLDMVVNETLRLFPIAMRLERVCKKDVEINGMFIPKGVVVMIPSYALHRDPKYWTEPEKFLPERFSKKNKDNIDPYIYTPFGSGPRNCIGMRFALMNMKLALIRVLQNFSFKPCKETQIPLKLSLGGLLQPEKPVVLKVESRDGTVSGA
Chain of Prostaglandin G/H synthase 1 (Homo sapiens) (P23219 whole entry): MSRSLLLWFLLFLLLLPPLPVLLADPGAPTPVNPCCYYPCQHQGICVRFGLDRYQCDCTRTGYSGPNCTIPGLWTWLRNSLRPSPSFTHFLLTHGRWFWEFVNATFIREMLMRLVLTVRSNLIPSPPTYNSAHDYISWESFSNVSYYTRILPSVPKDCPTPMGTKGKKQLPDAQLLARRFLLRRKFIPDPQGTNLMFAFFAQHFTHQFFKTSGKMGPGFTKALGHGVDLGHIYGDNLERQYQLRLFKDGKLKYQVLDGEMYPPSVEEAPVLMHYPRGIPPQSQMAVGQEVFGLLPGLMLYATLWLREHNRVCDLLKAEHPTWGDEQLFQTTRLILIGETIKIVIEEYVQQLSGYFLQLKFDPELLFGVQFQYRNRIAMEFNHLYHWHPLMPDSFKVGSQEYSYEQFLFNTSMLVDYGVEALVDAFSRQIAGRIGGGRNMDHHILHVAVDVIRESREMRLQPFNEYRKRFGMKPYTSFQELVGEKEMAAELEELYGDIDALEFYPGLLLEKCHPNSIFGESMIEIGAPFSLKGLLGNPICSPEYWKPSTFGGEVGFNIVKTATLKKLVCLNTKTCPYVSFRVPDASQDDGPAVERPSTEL
Chain of Mu-type opioid receptor (Homo sapiens) (P35372 whole entry): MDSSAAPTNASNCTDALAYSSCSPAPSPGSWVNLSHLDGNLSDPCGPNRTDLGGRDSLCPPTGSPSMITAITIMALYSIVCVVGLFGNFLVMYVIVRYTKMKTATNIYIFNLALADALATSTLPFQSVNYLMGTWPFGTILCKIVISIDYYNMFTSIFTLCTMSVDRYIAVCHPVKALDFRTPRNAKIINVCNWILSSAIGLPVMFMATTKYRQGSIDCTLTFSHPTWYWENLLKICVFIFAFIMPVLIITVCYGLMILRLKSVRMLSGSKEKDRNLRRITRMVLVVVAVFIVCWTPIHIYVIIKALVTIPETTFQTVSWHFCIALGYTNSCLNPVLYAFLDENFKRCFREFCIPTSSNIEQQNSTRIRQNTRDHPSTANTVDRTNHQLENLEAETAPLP
Chain of Cannabinoid receptor 2 (Homo sapiens) (P34972 whole entry): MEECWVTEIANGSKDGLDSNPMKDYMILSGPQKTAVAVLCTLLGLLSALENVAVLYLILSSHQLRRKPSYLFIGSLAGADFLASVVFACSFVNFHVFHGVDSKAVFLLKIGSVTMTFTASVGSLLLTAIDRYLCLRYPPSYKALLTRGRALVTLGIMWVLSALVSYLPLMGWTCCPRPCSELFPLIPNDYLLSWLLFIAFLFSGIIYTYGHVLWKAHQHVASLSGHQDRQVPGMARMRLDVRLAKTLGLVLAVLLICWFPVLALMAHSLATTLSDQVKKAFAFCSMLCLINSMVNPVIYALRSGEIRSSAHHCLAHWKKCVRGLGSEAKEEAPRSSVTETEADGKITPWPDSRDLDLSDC
Chain of Kappa-type opioid receptor (Homo sapiens) (P41145 whole entry): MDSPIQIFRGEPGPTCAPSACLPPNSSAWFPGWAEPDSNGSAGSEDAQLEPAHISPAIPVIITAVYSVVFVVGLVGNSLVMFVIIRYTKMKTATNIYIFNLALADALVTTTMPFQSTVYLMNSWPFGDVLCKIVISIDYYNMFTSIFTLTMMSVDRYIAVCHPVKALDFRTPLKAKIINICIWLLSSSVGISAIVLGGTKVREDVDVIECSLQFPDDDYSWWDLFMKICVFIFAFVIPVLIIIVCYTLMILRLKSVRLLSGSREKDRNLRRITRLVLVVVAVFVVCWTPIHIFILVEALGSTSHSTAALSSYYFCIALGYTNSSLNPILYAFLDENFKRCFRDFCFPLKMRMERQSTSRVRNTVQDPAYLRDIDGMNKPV
Chain of Delta-type opioid receptor (Homo sapiens) (P41143 whole entry): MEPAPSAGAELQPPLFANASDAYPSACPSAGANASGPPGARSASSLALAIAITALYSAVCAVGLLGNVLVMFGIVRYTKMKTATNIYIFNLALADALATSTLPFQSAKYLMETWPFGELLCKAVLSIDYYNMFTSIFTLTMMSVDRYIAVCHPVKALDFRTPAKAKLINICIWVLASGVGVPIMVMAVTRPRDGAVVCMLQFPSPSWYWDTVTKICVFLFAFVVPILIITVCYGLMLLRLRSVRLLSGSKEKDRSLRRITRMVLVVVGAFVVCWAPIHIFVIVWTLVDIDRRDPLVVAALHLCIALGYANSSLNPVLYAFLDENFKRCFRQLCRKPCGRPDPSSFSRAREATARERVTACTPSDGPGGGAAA
Chain of Cannabinoid receptor 1 (Homo sapiens) (P21554 whole entry): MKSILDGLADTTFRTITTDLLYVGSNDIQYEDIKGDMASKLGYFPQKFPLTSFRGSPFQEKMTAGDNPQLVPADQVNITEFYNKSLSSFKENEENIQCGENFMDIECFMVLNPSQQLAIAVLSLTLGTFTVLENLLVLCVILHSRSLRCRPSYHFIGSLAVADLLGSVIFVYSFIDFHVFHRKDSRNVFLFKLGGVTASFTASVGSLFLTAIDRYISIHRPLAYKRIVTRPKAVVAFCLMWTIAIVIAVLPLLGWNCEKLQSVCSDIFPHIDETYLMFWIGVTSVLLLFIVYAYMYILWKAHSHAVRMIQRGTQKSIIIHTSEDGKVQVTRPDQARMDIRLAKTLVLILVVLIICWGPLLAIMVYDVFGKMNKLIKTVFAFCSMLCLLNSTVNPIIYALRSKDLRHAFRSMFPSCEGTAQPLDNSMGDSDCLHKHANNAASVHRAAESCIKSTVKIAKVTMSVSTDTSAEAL

Activity (Cytochrome P450 3A4): Not Active
fraction unbound [1]: 0.22
pKb (Histamine H4 receptor [2]): 8.08
Stability [3]: 195 pmol/min/mg
Stability (Liver microsomes [4]): 102 pmol/min/mg
EC50 (Histamine H4 receptor [5]): 15.5 nM
Efficacy [6]: 76%
Stability (Liver microsomes [7]): 192 pmol/min/mg
Activity (Cytochrome P450 2C9): Not Active
Ki (Histamine H4 receptor [8]): 5.37 nM
Activity (Cytochrome P450 2D6): Not Active
fraction unbound [9]: 0.3
Ki (Histamine H4 receptor [10]; read-out: pKi (converted)): 15.5 nM
Compound: CN1CCN(c2nc(N)nc3c2CCc2ccccc2-3)CC1

Activity (Cytochrome P450 3A4): Not Active
fraction unbound [1]: 0.72
pKb (Histamine H4 receptor [2]): 8.75
Stability [3]: 43.6 pmol/min/mg
Stability (Liver microsomes [4]): 18.7 pmol/min/mg
EC50 (Histamine H4 receptor [5]): 20 nM
Efficacy [6]: 96%
Stability (Liver microsomes [7]): 65.8 pmol/min/mg
Activity (Cytochrome P450 2C9): Not Active
Ki (Histamine H4 receptor [8]): 4.79 nM
Activity (Cytochrome P450 2D6): Not Active
fraction unbound [9]: 0.31
Ki (Histamine H4 receptor [10]; read-out: pKi (converted)): 12.9 nM
Compound: Nc1nc2c(c(N3CCNCC3)n1)Cc1ccccc1-2

Activity (Cytochrome P450 3A4): Not Active
fraction unbound [1]: 0.51
pKb (Histamine H4 receptor [2]): 8.39
Stability [3]: 119 pmol/min/mg
Stability (Liver microsomes [4]): 22 pmol/min/mg
Efficacy [6]: 79%
Stability (Liver microsomes [7]): 168 pmol/min/mg
Activity (Cytochrome P450 2C9): Not Active
Ki (Histamine H4 receptor [8]): 14.1 nM
Activity (Cytochrome P450 2D6): Not Active
fraction unbound [9]: 0.35
Ki (Histamine H4 receptor [10]; read-out: pKi (converted)): 5.01 nM
Compound: CN1CCN(c2cc(-c3ccccc3)nc(N)n2)CC1

Vd [11]: 18.2 L/kg
Activity (Cytochrome P450 3A4): Not Active
fraction unbound [1]: 0.39
Activity [12]: inactive
pKb (Histamine H4 receptor [2]): 8.01
Activity [13]: inactive
Activity [14]: inactive
Stability [3]: 32.4 pmol/min/mg
Stability (Liver microsomes [4]): 27.3 pmol/min/mg
EC50 (Histamine H4 receptor [5]): 6.03 nM
bioavailability [15]: 18%
EC50 (Histamine H4 receptor [16]): 4.79 nM
Activity [17]: inactive
Ratio Ki [18]: > 2000
Ratio Ki [19]: 765
Ratio Ki (Homo sapiens): 470
Activity [20]: inactive
Ratio Ki [21]: 850
clearance [22]: 60 mL/min/kg
Stability (Liver microsomes [7]): 200 pmol/min/mg
Activity (Cytochrome P450 2C9): Not Active
Ki (Histamine H4 receptor [8]): 1.45 nM
Activity (Cytochrome P450 2D6): Not Active
Ratio Ki [23]: 3070
Activity [24]: inactive
Activity [26]: inactive
Ratio Ki [27]: > 1290
fraction unbound [9]: 0.34
Ratio Ki [29]: > 1820
Ratio Ki [30]: 1220
Ki (Histamine H4 receptor [10]; read-out: Ki): 5.1 nM
half-life [31]: 3.5 h
Compound: Nc1nc2c(c(N3CCNCC3)n1)CCCc1ccc(F)cc1-2
ED50 (Mus musculus [25]): 134 µmol/kg
ED50 (Mus musculus [28]): 10 µmol/kg
Activity (BMMC): Active

Activity (Cytochrome P450 3A4): Not Active
fraction unbound [1]: 0.59
pKb (Histamine H4 receptor [2]): 7.58
Stability [3]: 18.4 pmol/min/mg
Stability (Liver microsomes [4]): 45.9 pmol/min/mg
EC50 (Histamine H4 receptor [5]): 24 nM
Efficacy [6]: 52%
Stability (Liver microsomes [7]): 104 pmol/min/mg
Activity (Cytochrome P450 2C9): Not Active
Ki (Histamine H4 receptor [8]): 9.12 nM
Activity (Cytochrome P450 2D6): Not Active
fraction unbound [9]: 0.73
Ki (Histamine H4 receptor [10]; read-out: pKi (converted)): 52.5 nM
Compound: Nc1nc2c(c(N3CCNCC3)n1)CCc1ccccc1-2

pKb (Histamine H4 receptor [2]): 7.6
pKb [32]: 7.25
Compound: CN[C@@H]1CCN(c2nc(N)nc3c2CCCCCc2ccccc2-3)C1
Activity (BMMC): inactive
